Literature values in patent US8895756B2, “Bendamustine pharmaceutical compositions” (priority 2005, dated 2014).

Conditions: pure tertiary butanol vs pure acetic acid, dimethyl sulfoxide, methylhydroxy, water or TBA/water mixtures; cited from earlier work

Compound: CN(CC(N)=O)C(=O)N(CCCl)N=O [SarCNU]
- relative stability in solvents: more stable in pure tertiary butanol
